# Results published in publication PMC1283537, “Systematic Discovery of New Recognition Peptides Mediating Protein Interaction Networks” (PLoS Biology, 2005).
# Where no end group is shown, it is not given here.
# Assays:
# [1] = system: Cdlc2 (Dynein light chain 2); experiment: Fluorescence polarization binding of FITC-labelled peptides to Cdlc2; parameters: species or system Drosophila melanogaster; conditions: FITC-labelled peptide 10 nM, PBS pH 7.4, protein concentrations 5–400 μM
# Translin = target: T1, Translin (Drosophila melanogaster, UniProt Q7JVK6); experiment: Fluorescence polarization binding of FITC-labelled peptides to Translin; conditions: FITC N-terminal labeled peptide 10 nM in PBS pH 7.4, 5 min at room temperature, non-linear regression on three independent experiments
# T1 sequence (Q7JVK6 1-235): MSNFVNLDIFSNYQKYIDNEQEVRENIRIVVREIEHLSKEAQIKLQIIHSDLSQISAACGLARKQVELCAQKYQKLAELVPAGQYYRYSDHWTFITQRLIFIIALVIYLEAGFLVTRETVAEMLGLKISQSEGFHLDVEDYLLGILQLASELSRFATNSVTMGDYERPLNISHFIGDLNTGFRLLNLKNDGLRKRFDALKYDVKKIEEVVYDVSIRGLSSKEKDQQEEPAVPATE
# abl-SH3 domain = target: T2, abl-SH3 domain (Homo sapiens, UniProt P00519); experiment: Fluorescence polarization preliminary test with abl-SH3 binding peptide; conditions: FITC N-terminal labeled peptide
# T2 construct: preparation of human abl-SH3 domain [9]; made in house
# T2 sequence (P00519 61-121 limits assumed): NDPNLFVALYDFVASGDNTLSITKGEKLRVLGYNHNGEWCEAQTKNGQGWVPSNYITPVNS
# [2] = target: T3, protein phosphatase 1 (PP1) (Homo sapiens, UniProt P36873); experiment: Fluorescence polarization binding of FITC-labelled peptides to PP1; parameters: species or system H. sapiens
# T3 construct: made in house; host or cells: E. coli BL21(DE3)
# T3 sequence (P36873 whole entry): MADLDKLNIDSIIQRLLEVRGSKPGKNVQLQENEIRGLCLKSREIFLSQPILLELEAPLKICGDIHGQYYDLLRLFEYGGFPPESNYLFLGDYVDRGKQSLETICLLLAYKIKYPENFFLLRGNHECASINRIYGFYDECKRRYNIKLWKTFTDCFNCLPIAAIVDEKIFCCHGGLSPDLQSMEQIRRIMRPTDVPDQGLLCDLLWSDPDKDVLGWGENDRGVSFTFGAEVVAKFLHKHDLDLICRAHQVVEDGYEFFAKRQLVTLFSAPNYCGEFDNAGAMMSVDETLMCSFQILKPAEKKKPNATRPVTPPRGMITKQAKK
sequence,measurement,setting,value
"ERAAAAENA [mutant of the Cdlc2 native peptide, motif positions mutated to Alanine]",binding to Cdlc2,[1],No binding
"VSASPAAVAAPV (also: FITC label, position not given here) [Mutant]",Kd,Translin,> 300 µM
"ERAIQTENA [CG33213/104-112, Cdlc2 native peptide with the IQTE variant motif]",binding to Cdlc2,[1],No binding
"PFGTQTSPP [CG32130/215-223, additional peptide containing the canonical TQT motif, reference compound]",binding to Cdlc2,[1],No binding
GAPTYSPPPPP [GAPTYSPPPPP],Kd,abl-SH3 domain,3 ± 0.4 µM
VSASPAAVAAPV [Mutant],Kd,"[2]; FITC N-terminal labeled peptide 10 nM in PBS pH 7.4, 5 min at room temperature, normalized to extrapolated Bmax, non-linear regression, three independent experiments",65 ± 14 µM
same,specific binding to PP1,[2]; result in words,retain some affinity
